Test results reported in US4698419A, “Hexapeptide” (Vsesojuzny Kardiologichesky Nauchny Tsentr Akademii …, priority 1984, dated 1987).
No end group written: not given here.

Experiments:
[1] = system: acute liver injury induced by carbon tetrachloride; assay: Acute liver injury induced by carbon tetrachloride in rats, blood enzymes and lethality; format: in vivo, male rats of the V-star line; conditions: for Number of rats survived after 48 hours: groups of 13; for Lethality: comparison of the hexapeptide with somatostatin; for Concentration of alanine transaminase / Concentration of glutamatedehydrogenase: rat blood, CCl4, repeated after 6, 24 and 30 hours
Description: The hexapeptide according to the present invention was also studied on an experimental model of an acute liver injury in male rats of the V-star line induced by means of carbon tetrachloride. After a 12-hours' starvation the rats were given CCl4 in the concentration of […] diluted in olive oil intraperitoneally. After administration of CCl4 the rats were injected with the hexapeptide according to the present invention in different doses (10, 30, 100 and 300 μg/kg). Repeated injections of the hexapeptide according to the invention were effected after 6, 24, and 30 hours. The control group of animals was given, instead of the hexapeptide of this invention, a physiological solution (0.2 ml). All the test groups of animals consisted of 13 rats. Concentrations of alanine transaminase and glutamatedehydrogenase were determined in the rats blood.
A statistical processing in the case of liver injury caused by carbon tetrachloride in respect of the enzymes was effected using t-criterion, while in respect of lethality--by means of .chi.^2 criterion.

[2] = system: acute hepatitis induced by D-galactosamine hydrochloride; assay: Acute hepatitis induced by D-galactosamine hydrochloride in mice, plasma enzymes; format: in vivo, male mice of the line Balb C; conditions: for Concentration of alanine transaminase / Concentration of glutamatedehydrogenase: mouse blood plasma, D-galactosamine hydrochloride 700 mg/kg i.p., hexapeptide 100 μg/kg or prednisolone 5 mg/kg hypodermally, repeated after 6 hours
Description: The study of a hepatoprotective effect of the hexapeptide according to the present invention was carried out in comparison with prednisolone on male mice of the line Balb C.
The development of acute hepatitis was induced in mice subjected to a 12-hours' starving by means of D-galactosamine hydrochloride which was administered intraperitoneally diluted in 0.1 ml of a physiological solution in the dose of 700 mg/kg. The control group of animals was administered intraperitoneally with 0.1 ml of a physiological solution. The animals given D-galactosoamine hydrochloride were injected, immediately after its administration, with the hexapeptide according to the present invention (100 μg/kg), prednisolone (5 mg/kg) or a physiological solution (0.1 ml) hypodermally. Repeated injections of the test preparations were made after 6 hours. Each of the groups consisted of 12 animals. The mice were slaughtered by decapitation, blood was collected and in its plasma concentrations of alanine transaminase and glutametedehydrogenase were determined.
The statistical processing of the results obtained was effected using t-criterion. The certain value was regarded as the dirrerence at the level of 95% (at P<0.05).

[3] = Cell composition of the blood and basic hemodynamic characteristics in all experiments; format: in vivo; conditions: all of the experiments with the hexapeptide
Solubility of the powder = format: physicochemical
Description: The hexapeptide according to the present invention comprises a white powder well soluble in distilled water, physiological solution, ethanol, insoluble in ether, ethylacetate, benzene. Melting point is 154°-156° C., (α)D^25 =+8.4 (with 0.5 H2 O).

Acute toxicity LD50 = conditions: in vivo

Q: Which results are given for “FAGFGR [hexapeptide of this invention, phenylalanyl-alanyl-glycyl-phenylalanyl-glycylarginine]”?
A: Effect on both parameters (alanine transaminase, glutamatedehydrogenase) ([1]; CCl4 rats, 10-300 μg/kg): lowers both parameters depending on the dose; Number of rats survived after 48 hours ([1]; CCl4 rats, dose 10 μg/kg): 6; Number of rats survived after 48 hours ([1]; CCl4 rats, dose 30 μg/kg): 9; Number of rats survived after 48 hours ([1]; CCl4 rats, dose 100 μg/kg): 13; Number of rats survived after 48 hours ([1]; CCl4 rats, dose 300 μg/kg): 13; Lethal cases (%) ([1]; CCl4 rats, dose 10 μg/kg): 54%; Lethal cases (%) ([1]; CCl4 rats, dose 30 μg/kg): 30%; Lethal cases (%) ([1]; CCl4 rats, dose 100 μg/kg): 0%; Lethal cases (%) ([1]; CCl4 rats, dose 300 μg/kg): 0%; Lethal cases ([1]; CCl4 rats, doses of 100 and 300 μg/kg): no lethal cases are observed; Lethality [1]: 0%; Maximum effective dose ([1]; comparison with somatostatin): 0.1 mg/kg; Maximum effective dose lower than that of somatostatin ([1]; hexapeptide versus somatostatin): 15 times; Concentration of alanine transaminase ([1]; 10 μg/kg): 4141.5 ± 1094.8 JU/e; Concentration of glutamatedehydrogenase ([1]; 10 μg/kg): 1962.0 ± 494.7 JU/e; Concentration of alanine transaminase ([1]; 30 μg/kg): 3037.8 ± 580.8 JU/e; Concentration of glutamatedehydrogenase ([1]; 30 μg/kg): 1487.3 ± 301.5 JU/e; Concentration of alanine transaminase ([1]; 100 μg/kg): 2339.8 ± 333.4 JU/e; Concentration of glutamatedehydrogenase ([1]; 100 μg/kg): 874.3 ± 118.3 JU/e; Concentration of alanine transaminase ([1]; 300 μg/kg): 2110.1 ± 374.5 JU/e; Concentration of glutamatedehydrogenase ([1]; 300 μg/kg): 603.3 ± 118.0 JU/e; Effect on the increase of concentrations of alanine transaminase ([2]; D-galactosamine mice, 100 μg/kg): substantially fully blocked the increase; Reduction of the concentration of glutamatedehydrogenase ([2]; D-galactosamine mice, 100 μg/kg, versus D-galactosamine + physiological solution): 2 times; Concentration of alanine transaminase [2]: 115.4 ± 5.2 JU/e; Concentration of glutamatedehydrogenase [2]: 62.8 ± 4.9 JU/e; Changes on the part of basic hemodynamic characteristics [3]: no changes were observed; Changes on the part of the cell composition of the blood [3]: no changes were observed; Solubility (Solubility of the powder; benzene): insoluble; Solubility (Solubility of the powder; distilled water): well soluble; Solubility (Solubility of the powder; ethanol): well soluble; Solubility (Solubility of the powder; ether): insoluble; Solubility (Solubility of the powder; ethylacetate): insoluble; Solubility (Solubility of the powder; physiological solution): well soluble; Acute toxicity LD50 (Acute toxicity LD50): 120 mg/kg

Q: What does the source list for `C[C@H](N)C(=O)NCC(=O)N[C@H]1CSSC[C@@H](C(=O)O)NC(=O)[C@H](CO)NC(=O)[C@H]([C@@H](C)O)NC(=O)[C@H](Cc2ccccc2)NC(=O)[C@H]([C@@H](C)O)NC(=O)[C@H](CCCCN)NC(=O)[C@H](Cc2c[nH]c3ccccc23)NC(=O)[C@H](Cc2ccccc2)NC(=O)[C@H](Cc2ccccc2)NC(=O)[C@H](CC(N)=O)NC(=O)[C@H](CCCCN)NC1=O` [somatostatin, reference compound]?
A: Lethality [1]: 20%; Maximum effective dose ([1]; comparison with the hexapeptide): 1.5 mg/kg

Q: Which results are given for `C[C@]12C=CC(=O)C=C1CC[C@@H]1[C@@H]2[C@@H](O)C[C@@]2(C)[C@H]1CC[C@]2(O)C(=O)CO` [prednisolone, reference compound]?
A: Effect on the values of the studied parameters (alanine transaminase, glutamatedehydrogenase) ([2]; D-galactosamine mice, prednisolone 5 mg/kg): a trend was observed towards reducing; Effect on the concentration of the enzymes ([2]; conventionally employed parenteral dose): does not provide any pronounced effect; Concentration of alanine transaminase [2]: 151.2 ± 14.3 JU/e; Concentration of glutamatedehydrogenase [2]: 104.5 ± 10.1 JU/e
